Source: US10377902B2, “Crystallized red pigment, method of producing a recrystallized red pigment and a method for improving the appearance of or preventing wrinkles” (priority 2013, dated 2019)
In brackets after ≈: the same amount, converted by molar mass. Entries after “also recorded” stand apart in the source; their conditions may differ. Marks after values point to notes of the source that are not given here.

Key:
HuVECs = test: Tube formation of HuVECs in the presence of VEGF; format: cell-based, human; conditions: 30 μM, not showing cytotoxicity
Method: In turn, whether NYG-1 can suppress angiogenesis ability of HuVECs was tested.

[1] = tested on: Human umbilical vein endothelial cells (HUVEC); test: Angiogenesis, Tube Formation (Assay#368000): HUVEC tube network on Matrigel; format: cell-based
Method: Following biological test results were conducted by Ricerca Bioscience, LLC (http://www.Ricerca.com.) under a contract (Assay#368000, Tumor, Angiogenesis, Tube Formation) with the crystalized red pigment prepared in Example 1.
Human umbilical vein endothelial cells (HUVEC) differentiate to capillary-like structures and form vessel network on Matrigel in the presence of endothelial cell growth supplements. The anti-angiogenic activity of a test compound can be assessed by observing continuity of vessel network compared with untreated control. Test compound (crystallized red pigment prepared in […]) was tested for an effect on anti-angiogenesis at five final concentrations of 100, 10, 1, 0.1 and 0.01 μg/mL.
The crystalized red pigment prepared in Example 1 was dissolved in 100% dimethyl sulfoxide (DMSO) and then diluted with sterile distilled water to obtain solutions of […] in 40% DMSO. The solutions were diluted 100-fold with culture medium to generate final concentrations of 0.01, 0.1, 1, 10 and 100 μg/mL.
HUVEC was purchased from American Type Culture Collection (ATCC CRL-1730). HUVEC cells were incubated in 5% CO2 atmosphere of at 37° C. The culture medium used was Endothelial Cell Growth Medium supplemented with 10v/v % fetal bovine serum and 1% antifungal antibiotic.
Matrigel matrix was thawed, kept on ice at 4° C. and 50μL of the matrix was transferred to each well of a 96-microwell culture plate. The plate was incubated at 37° C. for at least one hour to allow the matrix solution to solidify before treatment.
Aliquots of […] of HUVEC suspension (about 1.5×10^4 cells/well) were placed in the 96-well matrigel plate. Two microliters per well of test compound solution or vehicle (40% DMSO) was then added and incubated at 5% CO2, 37° C. for 18 hours (in duplicate). The final concentration of DMSO was 0.4%. The test compound was evaluated at concentrations of 100, 10, 1, 0.1 and 0.01 μg/mL. At the end of incubation, a tube network formed by endothelial cell in each wells was evaluated by photomicroscopy (magnification of 40×) and photographed. The total length of tube network was measured from each photograph (FIG. 1).
The reduction of the total length of tube network in test compound treatment to the total length of tube network in vehicle treatment control indicates anti-angiogenic activity. The minimum inhibitory concentration (MIC) and 50% inhibition concentration (IC50) were determined to assess effect of the test substance on anti-angiogenesis.

HuVEC cells = test: Cytotoxicity / growth of vascular endothelial cells; format: cell-based, human; conditions: a few hundred micro mole level
From the text: The growth activity of cells under exposure to NYG-1 was detected by using HuVEC cells which is an in vitro cell model. […] Further, suramin was used as a positive control.

[2] = tested on: HUVEC (human umbilical vein endothelial cells); test: Cell proliferation, VEGF-Induced (307900), antagonist mode; format: cell-based; conditions: concurrent batch 305353, antagonist, read-out: Concurrent IC50/EC50
Method: Measurement of proliferation inhibition activity of VEGF-Induced cell of vascular endothelial cells by purified red pigment from Saw palmetto.
The final concentration in the test was given as 100 μg/mL and 10 μg/mL.
HUVEC cells were incubated in air atmosphere of 5% CO2 at 37° C. The culture medium used was Endothelial Cell Growth Medium with 10% fetal bovine serum (FBS). The medium for assay was
M199 medium supplemented with 10% FBS and 10 μg/mL of Heparin.
Aliquots of HUVEC (1.1×10^5 cells/ well) were pre-seeded in the 96-well TC plate in an incubator at 5% CO2, 37° C. Test compound solution or vehicle (DMSO) was then added per well and incubated at 5% CO2, 37° C. for 20 minutes. Thereafter, VEGF165 (0.2 nM) was added and incubated for 48 hours. 48 hours later, the cells were washed with HBSS once. Then 5 μg/mL of the fluorescence reagent, CalceinAM dye (BD Biosciences, USA) was added and incubated for another 50 minutes. After incubation, fluorescence intensity was detected by Micro plate reader. More than 50% of suppression for VEGF165 induced proliferation was indicated for the significant antagonistic activity of the test reagent.

SMILES	blood vessel formation (in words) (HuVECs)	effect on tube formation (in words) ([1]; 30 μM)	effect on tube formation (in words) ([1]; 30 and 15 μM)	IC50 ([1]; Homo sapiens, HUVEC) [µM]	% Inhibition of total tube length (mean ± SEM) ([1]; suramin concentration 1 (head prints μg/mL)) [%]	% Inhibition of total tube length (mean ± SEM) ([1]; suramin concentration 3 (head prints μg/mL)) [%]	% Inhibition of total tube length (mean ± SEM) ([1]; suramin concentration 10 (head prints μg/mL)) [%]	% Inhibition of total tube length (mean ± SEM) ([1]; suramin concentration 15 (head prints μg/mL))	% Inhibition of total tube length (mean ± SEM) ([1]; suramin concentration 30 (head prints μg/mL))	MIC (minimum inhibitory concentration) ([1]; tube formation) [µM]	cytotoxicity on HuVEC cells (HuVEC cells)	IC50 [2] [µM]
Cc1ccc(C(=O)Nc2ccc(S(=O)(=O)O)c3cc(S(=O)(=O)O)cc(S(=O)(=O)O)c23)cc1NC(=O)c1cccc(NC(=O)Nc2cccc(C(=O)Nc3cc(C(=O)Nc4ccc(S(=O)(=O)O)c5cc(S(=O)(=O)O)cc(S(=O)(=O)O)c45)ccc3C)c2)c1 [Suramin]	can suppress blood vessel formation	almost no tube formation; also recorded: completely inhibited	significant inhibition	16	3 ± 4	4 ± 5	8 ± 1	42 ± 9^ab %	100 ± 0^a %	15 (≈ 19.5 µg/mL)	strong cytotoxicity	
Cc1cc(C)c(/C=C2\C(=O)Nc3ccccc32)[nH]1 [SU5416]												0.12
